Experimental data as given in PMC2765047 (Journal of medicinal chemistry, 2009).
Read-outs that look alike come from different tables or passages of the source.

Tests used:
HCMV = details: ref [1]; cited from earlier work
HCMV Towne = experiment: HCMV plaque reduction assay, Towne strain, in HFF cells; type: cell-based, human cytomegalovirus (HCMV); details: Human betaherpesvirus 5, HFF, read-out: EC50 Virus Strain Towne
HFF cells [1] = details: read-out: CC50 HCMV/HFF Towne; visual cytotoxicity in uninfected HFF's; ref [2]; cited from earlier work
HFF cells [2] = details: read-out: CC50 HCMV/HFF AD169; cytotoxicity by neutral red uptake; ref [2]; cited from earlier work
Akata cells = details: read-out: CC50 EBV/Akata, ref [28]; cited from earlier work
[3] = Visual cytotoxicity in uninfected HFF's used in plaque reduction assays; type: cell-based; details: human
[4] = Cytotoxicity by neutral red uptake; type: cell-based; details: human
ADA from calf intestine = molecular target: T1, ADA from calf intestine (Bos taurus, UniProt P56658); experiment: Adenosine deaminase; type: biochemical
T1 sequence (P56658 1-363): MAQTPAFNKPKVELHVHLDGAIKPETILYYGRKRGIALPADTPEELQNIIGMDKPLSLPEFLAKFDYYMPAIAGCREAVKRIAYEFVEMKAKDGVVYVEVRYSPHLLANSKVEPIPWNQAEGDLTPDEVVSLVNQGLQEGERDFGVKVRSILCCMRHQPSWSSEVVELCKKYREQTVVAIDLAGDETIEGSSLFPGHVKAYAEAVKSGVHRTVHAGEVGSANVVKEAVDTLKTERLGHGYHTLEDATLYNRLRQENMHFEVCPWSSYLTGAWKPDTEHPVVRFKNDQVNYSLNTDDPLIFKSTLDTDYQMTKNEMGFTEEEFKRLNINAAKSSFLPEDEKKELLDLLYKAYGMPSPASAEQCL

in vitro = type: cell-based; details: human
HSV-1 = HSV-1 antiviral assay; type: cell-based, herpes simplex virus 1; details: human foreskin fibroblast (HFF) culture
HSV-2 = HSV-2 antiviral assay; type: cell-based, herpes simplex virus 2; details: human foreskin fibroblast (HFF) culture

Nc1c2ncnc-2ncn1/C=C1\CC1CO (centres unmarked) [Compound 1a, synadenol]
activity against HCMV (in words) (HCMV): effective

Nc1nc(O)c2ncn(/C=C3/CC3CO)c2n1 (centres unmarked) [Compound 1b]
activity against HCMV (in words) (HCMV): highly effective

Nc1ncnc2c1ncn2C=C1CC1(CO)CO [Compound 3a]
activity against HCMV (in words) (HCMV): effective

Nc1nc2c(ncn2/C=C2/CC2(CO)CO)c(=O)[nH]1 [Compound 3b, cyclopropavir]
EC50 (HCMV Towne): 600 nM | CC50 (HFF cells [1]): > 100 µM | CC50 (HFF cells [2]): > 100 µM | CC50 (Akata cells): 46 µM | activity against HCMV (in words) (HCMV): highly effective

Nc1ncnc2c1ncn2/C=C1/C[C@@H]1[C@H](O)CO [Compound 12a]
CC50 [3]: > 100 µM | CC50 [4]: > 300 µM

Nc1nc2c(ncn2/C=C2/C[C@@H]2[C@H](O)CO)c(=O)[nH]1 [Compound 12b, (+)-9-{(Z)-{(S)-2-[(S)-1,2-Dihydroxyethyl)cyclopropylidene]methyl}guanine]
CC50 [3]: > 100 µM | CC50 [4]: > 300 µM

Nc1ncnc2c1ncn2/C=C1\C[C@@H]1[C@H](O)CO [Compound 13a]
CC50 [4]: > 300 µM

Nc1nc2c(ncn2/C=C2\C[C@@H]2[C@H](O)CO)c(=O)[nH]1 [Compound 13b]
CC50 [3]: > 100 µM

Nc1ncnc2c1ncn2/C=C1/C[C@@H]1[C@@H](O)CO [Compound 14a]
CC50 [3]: > 100 µM

Nc1nc2c(ncn2/C=C2/C[C@@H]2[C@@H](O)CO)c(=O)[nH]1 [Compound 14b]
CC50 [3]: > 100 µM | CC50 [4]: > 300 µM

Nc1ncnc2c1ncn2/C=C1\C[C@@H]1[C@@H](O)CO [Compound 15a]
CC50 [3]: > 100 µM | CC50 [4]: > 300 µM

Nc1nc2c(ncn2/C=C2\C[C@@H]2[C@@H](O)CO)c(=O)[nH]1 [Compound 15b]
CC50 [3]: > 100 µM | CC50 [4]: > 300 µM

Nc1nc2c(ncn2COC(CO)CO)c(=O)[nH]1 [Ganciclovir, ganciclovir]
EC50 (HCMV Towne): 2000 nM

Nc1ncnc2c1ncn2/C=C1/C[C@H]1[C@@H](O)CO [ent-12a]
CC50 [3]: > 100 µM | CC50 [4]: 194 µM | substrate activity toward ADA (in words) (ADA from calf intestine): resistant to deamination

Nc1nc2c(ncn2/C=C2/C[C@H]2[C@@H](O)CO)c(=O)[nH]1 [ent-12b]
CC50 (in vitro): 284 µM | activity against HSV-1 (in words) (HSV-1): inactive | activity against HSV-2 (in words) (HSV-2): inactive

Nc1ncnc2c1ncn2/C=C1\C[C@H]1[C@@H](O)CO [ent-13a]
CC50 [3]: > 100 µM

Nc1nc2c(ncn2/C=C2\C[C@H]2[C@@H](O)CO)c(=O)[nH]1 [ent-13b]
CC50 [3]: > 100 µM

Nc1ncnc2c1ncn2/C=C1/C[C@H]1[C@H](O)CO [ent-14a]
CC50 [3]: > 100 µM | substrate activity toward ADA (in words) (ADA from calf intestine): resistant to deamination

Nc1nc2c(ncn2/C=C2/C[C@H]2[C@H](O)CO)c(=O)[nH]1 [ent-14b]
CC50 [3]: > 300 µM | CC50 [4]: > 300 µM

Nc1ncnc2c1ncn2/C=C1\C[C@H]1[C@H](O)CO [ent-15a]
CC50 [3]: > 100 µM
